Test results published in patent US20120157521A1, “TREATMENT OF MACULAR DEGENERATION” (Bonomics Limited, priority 2009, published 2012).

Experiments:
[1] = test system: tubulin; assay: Tubulin polymerisation assay; assay type: biochemical
Procedure: Tubulin Polymerisation Assay: Tubulin polymerisation inhibition assays were performed using a fluorescent-based detection kit (#BK011, Cytoskeleton) according to the instructions of the manufacturer. The test compound was added to a 2 mg/ml tubulin solution containing 20% glycerol and 1 mM GTP in 1× Buffer 1 (Buffer 1: 80 mM Piperazine-N,N′-bis[2-ethanesulfonic acid]sequisodium salt; 2 mM magnesium chloride; 0.5 mM Ethylene glycol-bis(b-amino-ethyl ether)N,N,N′,N′-tetra-acetic acid, pH 6.9, 10 uM fluorescent reporter). Fluorescence was measured over a period of 42 minutes at 1 minute intervals. Increased fluorescence indicates increase in tubulin polymerisation. There is a ten-fold increase in the affinity of the fluorescent reporter for polymerised tubulin compared to monomeric tubulin subunits. The result is a fluorescence signal that closely follows tubulin polymerisation.

[2] = test system: HUVEC cells under activated cell conditions; assay: Disruption of endothelial cell cytoskeleton (actin staining); assay type: cell-based, human; settings: 10 nM, 20 minutes, actin stain
Procedure: FIG. 7 depicts disruption of endothelial cell cytoskeleton by compound Example 2. Endothelial cells were cultured in the presence of 10 nM compound Example 2 or DMSO control, and after 20 mins washed, fixed and stained with actin.
HUVEC cells were cultured under “activated” cell conditions in the presence of 10 nM compound Example 2 or DMSO control (using HUVEC cells). After 20 minutes cells were washed, fixed and stained for actin. […] A bleb is defined as an irregular bulge in the plasma membrane of a cell caused by localized decoupling of the cytoskeleton from the plasma membrane. Blebbing is the term used to describe the formation of blebs.

[3] = test system: quiescent human abdominal aorta endothelial cells (HAAEC); assay: Proliferation assay - quiescent endothelium, HAAEC; settings: Endothelial cell, read-out: Quiescent EC50
[4] = test system: quiescent human umbilical vein endothelial cells (HUVEC); assay: Proliferation assay - quiescent endothelium (MTT), HUVEC; assay type: cell-based; settings: 48 hrs
Procedure: Proliferation Assay—quiescent endothelium: Human umbilical vein endothelial cells (CC-2519, Clonetics) were plated at 15000 cells/well in EBM2 (CC-3156, Clonetics)+0.5% FBS (CC-4101A, Clonetics)+GA-1000 (CC-4381A, Clonetics) in a 96 well plate in triplicate. Cells were cultured overnight at 37° C. 5% CO2. Medium was subsequently replaced with fresh medium including the compound or negative control. Cells were cultured for a period of 48 hrs. An MTT assay was performed to measure changes in cell numbers. Briefly, 20 μl of MTT reagent was added to cells containing 100 μl of EBM2+0.5% FBS and incubated at 37° C. for 2 hours. Absorbance was measured at 492 nm.

[5] = test system: HUVEC endothelial cell capillary formation; assay: Endothelial cell capillary formation on Matrigel; settings: HUVEC, 25,000/well, 96-well plates, 22 hrs
Procedure: DMSO vehicle was included in the analysis as a negative control. Cells were plated at 25,000/well in 96-well plates and cultured for 22 hrs.
DMSO vehicle (C, F) was included in the analysis as a negative control. Cells were plated at 25,000/well in 96-well plates and cultured for 22 hrs.

[6] = test system: stable pre-formed HUVEC capillary tubes; assay: Disruptive activity on stable pre-formed capillary tubes on Matrigel; settings: 5 hrs after compound, at concentrations that inhibit capillary formation

SMILES | Tubulin polymerisation inhibition (in words) [1] | Disruption of endothelial cell cytoskeleton (blebbing) [2] | EC50 [3] [nM] | EC50 [4] [nM] | Effect on capillary formation on Matrigel [5] | Disruption of stable pre-formed capillaries [6]
COc1cc(C(=O)c2c(C)oc3c(O)c(OC)ccc23)cc(OC)c1OC [Example 1, 2-Methyl-7-hydroxy-3-(3,4,5-trimethoxybenzoyl)-6-methoxybenzofuran] | potent tubulin polymerisation inhibitor | – | – | – | – | –
COc1cc(C(=O)c2c(C)oc3c(OP(=O)([O-])[O-])c(OC)ccc23)cc(OC)c1OC.[Na+].[Na+] [Example 2, Disodium 6-methoxy-2-methyl-3-(3,4,5-trimethoxybenzoyl)benzofuran-7-yl phosphate] | – | clear evidence of “blebbing” | 12.5 | 23.3 | inhibited | does not disrupt stable pre-formed capillaries
